For data set [1], the system named is DENV2. The class given is cell-based, dengue virus.
The subject of data set [2] is VEEV (TC-83). The format is cell-based, Venezuelan equine encephalitis virus. The following applies: read-out: EC50, VEEV (TC-83) infection.
For data set [3], the target named is BIKE. The following applies: cited from earlier work.
For data set [4], the target named is GAK. The note with it: at 10 μM; cited from earlier work.
For data set [5], the system named is DENV. The format is cell-based, dengue virus. The note with it: read-out: EC50, DENV infection in MDDC.
Data set [6] concerns DENV2. The format is cell-based, dengue virus. The following applies: read-out: EC50, DENV2 infection.
Data set [7] concerns phospho-AP2M1 (T156). The format is cell-based.
For data set [8], the system named is primary human monocyte derived dendritic cells (MDDC).
Data set [9] relates to ERK2. The following applies: read-out: IC50, ERK2; cited from earlier work.
In data set [10] the target is AAK1. The note with it: at 10 μM; cited from earlier work.
The test system of data set [11] is EBOV. The format is cell-based, Ebola virus. The note with it: read-out: EC50, EBOV infection.
Data set [12] concerns DENV. The format is cell-based. The note with it: BIKE-inducible T-REx-293 cells, doxycycline induction, 72 hours treatment.
The test system of data set [13] is TAK1. The following applies: read-out: IC50, TAK1; cited from earlier work.
The test system of data set [14] is Huh7 cells.

Each structure is given as a SMILES string.

Turning to `C[C@@H]1C[C@@H]([C@H](O)CC2CC(=O)NC(=O)C2)C(=O)[C@@H](C)C1` [cycloheximide], the “effect on viral infection at 6 hours postinfection” value in data set [1] is given as “suppressed viral infection”.

For `COc1cc(O)c2c(c1)/C=C/C[C@H](O)[C@H](O)C(=O)/C=C\C[C@H](C)OC2=O` [5Z-7-oxozeaenol], the EC50 (commonly the midpoint of the concentration-response curve) in data set [2] stood at 2600 nM; in data set [5], 540 nM; in [6], 2470 nM; in data set [11] it was 4090 nM. For the same compound, in data set [3] (at 10 μM), the “KINOMEscan binding, BIKE” value was 3.8 % of control. Moreover, the IC50 (usually the concentration needed to halve the response being measured) in data set [3] (read-out: IC50 value for BIKE inhibition or binding (Discussion)) was 3.8 nM; in data set [9] it was 80 nM; in data set [13] it was 8 nM. Also, the “KINOMEscan binding, GAK” value in [4] is reported as 10 % of control. For the same compound, the “effect on AP2M1 phosphorylation” value in data set [7] is reported as “dramatic reduction in AP2M1 phosphorylation”. Besides, the “effect on phospho-AP2M1 level at 10 μM” value in data set [7] was “significant reduction”. Moreover, the CC50 (usually the concentration that lowers cell viability or growth by half) in data set [8] was 5490 nM. Also, in data set [10], the “KINOMEscan binding, AAK1” value is listed as 13 % of control. In addition, the “DENV infection upon BIKE expression in drug-treated cells” value in data set [12] is “partially restored”. The “cellular toxicity in the EBOV assay” value in data set [14] is recorded as “no apparent cellular toxicity within the concentration range tested”.

(Values after article PMC7879702 (Antiviral research, 2020).)
